From US20120245344A1 (NIPPON CHEMIPHAR CO., LTD., priority 2009, published 2012) come the findings set out here.

Entries after “also recorded” stand apart in the source; their conditions may differ.

In data set [1] the target is T1, human GPR119 (Homo sapiens, UniProt Q8TDV5).
T1 construct: expressed in transfected cells; host or cells: Flp-in T-Rex-293 cells (Invitrogen #R78007), plasmid pcDNA5/FRT/TO, expression induced with tetracycline
T1 sequence (Q8TDV5 1-335): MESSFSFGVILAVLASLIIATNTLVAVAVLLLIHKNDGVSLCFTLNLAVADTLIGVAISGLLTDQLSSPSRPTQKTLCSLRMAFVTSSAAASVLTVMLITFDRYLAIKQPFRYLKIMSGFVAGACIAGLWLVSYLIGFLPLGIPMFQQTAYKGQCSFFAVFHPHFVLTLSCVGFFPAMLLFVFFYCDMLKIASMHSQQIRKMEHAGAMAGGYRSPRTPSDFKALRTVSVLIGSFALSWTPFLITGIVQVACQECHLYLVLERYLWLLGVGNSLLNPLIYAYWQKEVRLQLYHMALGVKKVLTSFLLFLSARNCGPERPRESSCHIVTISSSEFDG
The experiment in a line: Measurement of intracellular cAMP in stable cell line expressing human GPR119 (GPR119 agonist effect). Format: cell-based. The note with it: for EC50: increase of intracellular cAMP, Flp-in T-Rex-293 cells expressing human GPR119, 37° C. for 30 minutes; for GPR119 agonist effect (in words): statement in words on Tables 10 to 13.
Source text: The GPR119 agonist effect is studied by measuring the effect of an analyte on increase of intracellular amount of cAMP in human GPR119 introduced cells. The testing method is described below.
Human GPR119 gene (NM 178471) is purchased from ATCC (ATCC No. 10807349), and is amplyfied according to PCR to form BamHI site at 5′ side and Apa I site at 3′ side. The primers are […] (sequence No. 1) and […] (sequence No. 2). The PCR conditions are described below.
The double-stranded DNA is thermally denatured using a DNA polymerase (KOD-Plus-Ver. 2; TOYOBO #KOD-211) at 98° C. for 10 seconds in one cycle. The denatured single-stranded DNA is annealed with the primers at 55° C. for 30 seconds. The DNA is subjected to an extension reaction at 68° C. for 1 minute and 15 seconds. The above-mentioned steps are repeated in 35 cycles. The PCR product is inserted into pcDNA5/FRT/TO (Invitrogen #V6520-20) plasmid. Flp-in T-Rex-293 cells (Invitorogen #R78007) are transfected with the obtained plasmid. The method of transfection is conducted in accordance with the protocol of the product.
(§1) The stable cell line expressing human GPR119 prepared in the above-mentioned method is plated on a 96-well plate at the concentration of 2,500 cells/well using Dulbecco's Modified Eagle Medium (DMEM) containing 10% fetal bovine serum (FBS). Twenty-four hours after plating, tetracyclin (Invitrogen #Q10019) is added at the final concentration of 20 ng/mL to induce hGPR119 gene expression. Twenty-four hours after, the medium is removed, and the cells are stimulated with an assay buffer (0.5 mM IBMX PBS (−)) containing the test compound at 37° C. for 30 minutes. The amount of the intracellular cAMP is measured using a commercially available kit (HitHunter™ cAMP XS+Assay: GE Healthcare #90007503) and a reader (FLUOstar Optima: BMG LABTECH). The test compound is dissolved in 100% DMSO, and added at the final concentration of 1%.
Human GPR119 gene (NM 178471) was purchased from ATCC (ATCC No. 10807349), and is amplyfied according to PCR to form BamHI site at 5′ side and Apa I site at 3′ side. The primers were […] (sequence No. 1) and […] (sequence No. 2). The PCR conditions are described below. The double-stranded DNA was thermally denatured using a DNA polymerase (KOD-Plus-Ver. 2; TOYOBO #KOD-211) at 98° C. for 10 seconds in one cycle. The denatured single-stranded DNA was annealed with the primers at 55° C. for 30 seconds. The DNA was subjected to an extension reaction at 68° C. for 1 minute and 15 seconds. The above-mentioned steps were repeated in 35 cycles. The PCR product was inserted into pcDNA5/FRT/TO (Invitrogen #V6520-20) plasmid. Flp-in T-Rex-293 cells (Invitorogen #R78007) were transfected with the obtained plasmid. The method of transfection was conducted in accordance with the protocol of the product.
as §1, with “method was” for “method is”, “#Q10019) was” for “#Q10019) is”, “medium was” for “medium is”, “cells were” for “cells are”, “cAMP was” for “cAMP is”, “compound was” for “compound is”
The examination was performed by the method similar to Example 87 Pharmacological experiment 1-(1), -(2).

The test system of data set [2] is glycemic excursions after glucose administration in normal mice. As to the kind of experiment: Oral glucose tolerance test in normal mice. Format: in vivo, mice (male ICR). The note with it: for Inhibition rate (%): 30 min before glucose 3 g/kg, area under the glycemic excursion curve 0-120 min versus vehicle. On the procedure:
In this experiment, the inhibitory effect of an analyte on glycemic excursions is examined after glucose administration in normal mice. The test methods are described below.
Male 9-week-old ICR mice, habituated to the experimental environment for two weeks, are fasted for 18 hours and used to this experiment. Mice are orally administered the analyte or vehicle (polyethylene glycol 400:ethanol:Tween 80=8:1:1). After 30 minutes, they were orally given glucose at the dose of 3 g/kg.
Blood was collected at just before the analyte or vehicle administration (−30 minutes), immediately before glucose challenge (0 minute), 20 minutes, 40 minutes, 60 minutes, and 120 minutes after glucose ingestion to determine blood glucose levels.
Inhibition rate (%) of the analyte versus vehicle in areas under the glycemic excursion curve between 0 and 120 min after glucose challenge is determined.
In this experiment, we examined the inhibitory effect of test compound on glycemic excursions after glucose administration in normal mice. The test methods are shown as follows.
Male 9-week-old ICR mice, habituated to the experimental environment for two weeks, were fasted for 18 hours and used to this experiment. Mice were orally administered the test compound or vehicle (polyethylene glycol 400:ethanol:Tween80=8:1:1), and after 30 minutes, they were orally given glucose at the dose of 3 g/kg.
Blood was collected at just before the test compound or vehicle administration (−30 min), immediately before glucose challenge (0 min), 20 min, 40 min, 60 min and 120 min after glucose ingestion and then blood glucose levels were determined.
Inhibition rate (%) of the test compound versus vehicle in areas under the glycemic excursion curve between 0 and 120 min after glucose challenge was determined.
Except for the dose of test compounds made 1 mg/kg, the examination was performed by the method similar to Example 89 oral glucose tolerance test in normal mice.

Setting [3] is: 3 mg/kg, statement in words on Table 14.
Setting [4] is: 1 mg/kg, statement in words on Table 15.

As a reminder, the EC50 is the midpoint of the concentration-response curve. Compound `CC(C)(C)OC(=O)N1CCC(c2ccc(Cn3ccc4cc(S(C)(=O)=O)ccc43)nc2)CC1` [Example 1, tert-Butyl 4-[2-(5-methanesulfonylindol-1-ylmethyl)pyridin-5-yl]piperidine-1-carboxylate] gave an EC50 in data set [1] of 21.2 nM. The “Inhibition rate (%)” value in data set [2] (3 mg/kg oral) was 37.9%. Also, the “inhibitory effect on glycemic excursions (in words)” value (from here on “inhibitory effect”) in data set [2] (setting [3]) is listed as “excellent inhibitory effect on glycemic excursions; also recorded: excellent inhibitory effect of glycemic excursions”.

For the compound `CC(C)(C)OC(=O)N1CCC(c2ccc(CN3CCc4cc(S(C)(=O)=O)ccc43)nc2)CC1` [Example 2], in data set [1], the midpoint of the response, the EC50, lay at 20.5 nM and the “GPR119 agonist effect (in words)” value is recorded as “excellent GPR119 agonist effect”. Further, the “Inhibition rate (%)” value in data set [2] (3 mg/kg oral) stood at 33.7%. In data set [2] (setting [3]), the “inhibitory effect” value was “excellent inhibitory effect on glycemic excursions; also recorded: excellent inhibitory effect of glycemic excursions”.

The term melting point denotes the temperature, or range, at which the solid turns liquid. `CC(C)(C)OC(=O)N1CCC(c2ccc(C(=O)N3CCc4cc(S(C)(=O)=O)ccc43)nc2)CC1` [Example 8, tert-Butyl 4-[2-(5-methanesulfonylindoline-1-carbonyl)pyridin-5-yl]piperidine-1-carboxylate] showed a melting point of 202 to 205 °C.

In turn, `CC(C)(C)OC(=O)N1CCC(c2ccc(COc3ccc4c(c3)C=CS4(=O)=O)nc2)CC1` [Example 10, tert-Butyl 4-[2-(1,1-dioxo-1H-benzo[b]thiophen-5-yloxymethyl)pyridin-5-yl]piperidine-1-carboxylate] gave a melting point of 154 to 157 °C. This compound displayed a concentration for a half-maximal effect (EC50) in data set [1] of 353 nM.

For `CC(C)(C)OC(=O)N1CCC(c2ccc(Cn3ccc4cc(S(C)(=O)=O)c(F)cc43)nc2)CC1` [Example 24, tert-Butyl 4-[2-(6-fluoro-5-methanesulfonylindol-1-ylmethyl)pyridin-5-yl]piperidine-1-carboxylate], in data set [1], the EC50 stood at 19 nM. Also, the “Inhibition rate (%)” value in data set [2] (1 mg/kg oral) worked out at 37.9%. The “inhibitory effect” value in data set [2] (setting [4]) is “excellent inhibitory effect on glycemic excursions; also recorded: excellent inhibitory effect of glycemic excursions”.

The compound `CC(C)OC(=O)N1CCC(c2ccc(Cn3ccc4cc(-n5cnnn5)cc(F)c43)nc2)CC1` [Example 54, Isopropyl 4-[2-[7-fluoro-5-(tetrazol-1-yl)indol-1-ylmethyl]pyridin-5-yl]piperidine-1-carboxylate] yielded an EC50 in data set [1] of 9.6 nM. Besides, the “Inhibition rate (%)” value in data set [2] (1 mg/kg oral) is reported as 36.0%. In addition, in data set [2] (setting [4]), the “inhibitory effect” value is listed as “excellent inhibitory effect on glycemic excursions; also recorded: excellent inhibitory effect of glycemic excursions”.

`CCC1CN(C(=O)OC(C)(C)C)CC=C1c1ccc(Cn2ccc3cc(S(C)(=O)=O)ccc32)nc1` (centres unmarked) [Example 73, tert-Butyl 3-ethyl-4-[2-(5-methanesulfonylindol-1-ylmethyl)pyridin-5-yl]-3,6-dihydro-2H-pyridine-1-carboxylate] gave an EC50 in data set [1] of 32.4 nM. This lies in the double-digit nanomolar range.

On to `CC(C)(C)OC(=O)N1CCC(F)(c2ccc(Cn3ccc4cc(S(C)(=O)=O)ccc43)nc2)CC1` [Example 76, tert-Butyl 4-fluoro-4-[2-(5-methanesulfonylindol-1-ylmethyl)pyridin-5-yl]piperidine-1-carboxylate], for which the concentration for a half-maximal effect (EC50) in data set [1] was determined as 42.6 nM. The EC50 values of the last two compounds are within 1.5-fold of each other.

Take `CC(C)OC(=O)N1CCC(c2cnc(Cn3ccc4cc(-n5cnnn5)cc(F)c43)c(F)c2)CC1` [Example 83, Isopropyl 4-[3-fluoro-2-[7-fluoro-5-(tetrazol-1-yl)indol-1-ylmethyl]pyridin-5-yl]piperidine-1-carboxylate]: in data set [1], a half-maximal response (EC50) required 10.4 nM and the “GPR119 agonist effect (in words)” value was “excellent GPR119 agonist effect”.
